Columns and labels:
Assay in all cases: cells
Design in all cases: Anti-proliferation, 10-point dose response, CellTiter-Glo luminescence (MTT stated for KM12(Luc)), GI50 fitted in Prism
HCC-78 = conditions: Homo sapiens, HCC78, 72 h, read-out: GI50 (µM) a
Experimental: (§1) To obtain the GI50 value of a substance, cell viability was measured using MTT (G4000, Promega, USA) for KM12(Luc) cell and Cell titer glo (G7572, Promega, USA) for other cell lines. For adherent cells, cells were seeded at 5,000 cells/well in a 96-well plate and treated with a substance one day after cell seeding. For suspension cells, 10,000 cells/well were seeded and the substance was treated after 4 h stabilization of cells. The substance was treated at 10 points of 1:3 serial dilution (0–100 µmol/L) for 72 h. For MTT assay, 15 µL dye solution was added to each well and incubated 4 h at 37°C. 100 µL of solubilization solution was added and followed 1 hr incubation. Absorbance at 570 nm of each well was recorded using EnVision microplate reader (Perkin Elmer). For Cell titer glo assay, Cell titer glo reagent was treated in each well and measured the luminescence by EnVision microplate reader (Perkin Elmer). Viable cells in each well were normalized by using 0.5% DMSO-treated wells (100%). The inhibitor dose−response curve was fitted and GI50 values were calculated using Prism 7.0 software (GraphPad). All assays were performed in duplicate and the standard deviation (SD) was determined from two independent experiments. KM12(Luc) was purchased from the JCRB cell bank. KM12 (Luc) was used within 6 months after purchase and the DNA profiles were confirmed using a short tandem repeat (STR) analysis by the Korean Cell Line Bank. KM12(Luc) cells were maintained in DMEM supplemented with 10% FBS and antibiotics. Parental Ba/F3 cells were purchased from DSMZ and were grown in RPMI1640 supplemented with 10% FBS and antibiotics in the presence of IL3, Transformed Ba/F3 cell lines were grown in the same media without IL3. Cells used in this study were negative for mycoplasma contamination. AN3-CA, HEC1A, U138, 8505C, MKN28, MKN45, A172, A375, Capan-1 HeLa, HEP3B, MCF-7 and MIA-paca-2 cells were maintained in DMEM (Welgene, Korea) supplemented with 10% FBS and antibiotics (Welgene, Korea). Otherwise, all cells were maintained in RPMI (Welgene, Korea) supplemented with 10% FBS and antibiotics (Welgene, Korea). To identify AZD4547 sensitive cell lines other than FGFR-mutant driven cancer cells, GI50 values were determined for AZD4547 against 64 different cancer cell lines, including AN3-CA used as a positive control ( Figure 1A and Table S1 ). […] Also, inhibitory activity of AZD4547 against DDR1 or FLT3 allows suppression of proliferation of U-2-OS and MV4-11 ([43]). Therefore, our attention focused on the inhibitory activity of AZD4547 against KM12(Luc) cell lines which have the TPM3-NTRK1 fusion gene. To exclude the possibility that the anti-proliferation activity of AZD4547 against KM12(Luc) is a common characteristic of FGFR inhibitors, we determined if BGJ398, a representative FGFR inhibitor, is also capable of suppressing proliferation of KM12(Luc) cells ( Figure 1B ).

HCT-116 = conditions: Homo sapiens, HCT-116, 72 h, read-out: GI50 (µM) a
Experimental: as §1

HT-29 = conditions: Homo sapiens, HT-29, 72 h, read-out: GI50 (µM) a
Experimental: as §1

KG-1 = conditions: Homo sapiens, KG-1, 72 h, read-out: GI50 (µM) a
Experimental: as §1

KM12-Luc = conditions: KM12-Luc, 72 h, read-out: GI50 (µM) a
Experimental: as §1

LNCaP = conditions: Homo sapiens, LNCaP, 72 h, read-out: GI50 (µM) a
Experimental: as §1

MCF7 = conditions: Homo sapiens, MCF7, 72 h, read-out: GI50 (µM) a
Experimental: as §1

NCI-H1666 = conditions: Homo sapiens, NCI-H1666, 72 h, read-out: GI50 (µM) a
Experimental: as §1

NCI-H2087 = conditions: Homo sapiens, NCI-H2087, 72 h, read-out: GI50 (µM) a
Experimental: as §1

OVCAR-8 = conditions: Homo sapiens, OVCAR-8, 72 h, read-out: GI50 (µM) a
Experimental: as §1

SK-MEL-30 = conditions: Homo sapiens, SK-MEL-30, 72 h, read-out: GI50 (µM) a
Experimental: as §1

SW480 = conditions: Homo sapiens, SW480, 72 h, read-out: GI50 (µM) a
Experimental: as §1

**Q.** What does the source list for `COc1cc(CCc2cc(NC(=O)c3ccc(N4C[C@@H](C)N[C@@H](C)C4)cc3)n[nH]2)cc(OC)c1` [AZD4547]?
**A.** GI50 (HCC-78): 7.17 µM; GI50 (HCT-116): 7.13 µM; GI50 (HT-29): 9.63 µM; GI50 (KG-1): 6.27 µM; GI50 (KM12-Luc): 0.11 µM; GI50 (LNCaP): 22.7 µM; GI50 (MCF7): 7.84 µM; GI50 (NCI-H1666): 10.8 µM; GI50 (NCI-H2087): 27.4 µM; GI50 (OVCAR-8): 4.97 µM; GI50 (SK-MEL-30): 16.5 µM; GI50 (SW480): 14.1 µM

— paper PMC8591201, “Anti-Tumor Activity of AZD4547 Against NTRK1 Fusion Positive Cancer Cells Through Inhibition of NTRKs” (Frontiers in Oncology, 2021)
